Measurements reported in ChEMBL document CHEMBL1201862, “PubChem BioAssay data set” (2004).
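96-well plates; 48 h exposure; 5 concentrations. Endpoints by linear interpolation between flanking doses. Not reached: highest tested concentration assigned. Abbreviation: GI50, concentration required for 50% inhibition of growth.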 Calls of active or inactive are those of the source. Cut-off read from the data, not from the text of the source: active = GI50 up to about 1.1 µM and inactive = higher.

How the values were obtained:
Experiment in all cases: NCI tumour cell line growth inhibition, 48 h
786-0 = test system: 786-0
COLO 205 = test system: COLO 205
DU-145 = test system: DU-145
EKVX = test system: EKVX
HCC 2998 = test system: HCC 2998
HCT-116 = test system: HCT-116
HOP-92 = test system: HOP-92
Hs-578T = test system: Hs-578T
IGROV-1 = test system: IGROV-1
MDA-MB-231 = test system: MDA-MB-231
MDA-MB-435 = test system: MDA-MB-435
NCI-H460 = test system: NCI-H460
RPMI-8226 = test system: RPMI-8226
SF-295 = test system: SF-295
SK-MEL-2 = test system: SK-MEL-2
SK-MEL-5 = test system: SK-MEL-5
SK-OV-3 = test system: SK-OV-3
SNB-75 = test system: SNB-75
TK-10 = test system: TK-10
U-251 = test system: U-251

SMILES	GI50 (786-0)	GI50 (COLO 205)	GI50 (DU-145)	GI50 (EKVX)	GI50 (HCC 2998)	GI50 (HCT-116)	GI50 (HOP-92)	GI50 (Hs-578T)	GI50 (IGROV-1)	GI50 (MDA-MB-231)	GI50 (MDA-MB-435)	GI50 (NCI-H460)	GI50 (RPMI-8226)	GI50 (SF-295)	GI50 (SK-MEL-2)	GI50 (SK-MEL-5)	GI50 (SK-OV-3)	GI50 (SNB-75)	GI50 (TK-10)	GI50 (U-251)
COc1cc2c(cc1OC)-c1cc3cc(OC)c(OC)cc3c(=O)n1CC2	23.3 µM (inactive)	26.5 µM (inactive)	4.57 µM (inactive)	28.8 µM (inactive)	30.7 µM (inactive)	16.3 µM (inactive)	2.34 µM (inactive)	6 µM (inactive)	4.91 µM (inactive)	14.8 µM (inactive)	31.6 µM (inactive)	> 25.6 µM (inactive)	3.16 µM (inactive)	11.5 µM (inactive)	11.5 µM (inactive)	4.41 µM (inactive)	14.1 µM (inactive)	9.4 µM (inactive)	8.07 µM (inactive)	17.3 µM (inactive)
N=C(N)c1ccc(/N=N\c2c(O)ccc3c2[nH]c2ccccc23)cc1	1.69 µM (inactive)	21.7 µM (inactive)	34.6 µM (inactive)	> 59.6 µM (inactive)	1.76 µM (inactive)	3.31 µM (inactive)	98.6 µM (inactive)	63.8 µM (inactive)	49.8 µM (inactive)	2.09 µM (inactive)	3.39 µM (inactive)	2.76 µM (inactive)	2.19 µM (inactive)	> 51.5 µM (inactive)	20.3 µM (inactive)	37.8 µM (inactive)	25.2 µM (inactive)	8.38 µM (inactive)	45.5 µM (inactive)	1.95 µM (inactive)
CCCCCCCCCCC(O)C1CCC(C(O)CCC(O)C2CCC(CCCCCCC[C@H](O)CC3=C[C@@H](C)OC3=O)O2)O1 (stereo partly specified)	17.3 µM (inactive)	> 100 µM (inactive)	> 10 µM (inactive)	34.8 µM (inactive)	97.5 µM (inactive)	< 0.033 µM (active)	11.6 µM (inactive)	> 10 µM (inactive)	31.5 µM (inactive)	> 10 µM (inactive)	6.28 µM (inactive)	> 22.9 µM (inactive)	0.855 µM (active)	0.01 µM (active)	> 100 µM (inactive)	0.01 µM (active)	30.3 µM (inactive)	6.9 µM (inactive)	30.3 µM (inactive)	10.2 µM (inactive)
CO[C@H]1C[C@H](O[C@H]2CC[C@]3(C=O)[C@H]4CC[C@]5(C)[C@@H](C6=CC(=O)OC6)CC[C@]5(O)[C@@H]4CC[C@]3(O)C2)O[C@H](C)[C@H]1O[C@@H]1O[C@H](CO)[C@@H](O)[C@H](O)[C@H]1O	> 0.01 µM (active)	0.00011 µM (active)	6.34e-06 µM (active)	7e-06 µM (active)	> 0.01 µM (active)	9.73e-06 µM (active)	5.83e-05 µM (active)	> 0.01 µM (active)	> 0.01 µM (active)	0.000173 µM (active)	4.61e-05 µM (active)	9.04e-06 µM (active)	3.7e-05 µM (active)	2.04e-05 µM (active)	8.26e-05 µM (active)	2.62e-05 µM (active)	4.23e-05 µM (active)	5.1e-05 µM (active)	2.48e-05 µM (active)	4.07e-05 µM (active)
O=C(Nc1c(C(F)(F)F)cc(-c2ccccc2)[nH]c1=O)N1CCOCC1	> 100 µM (inactive)	> 100 µM (inactive)	> 100 µM (inactive)	40.2 µM (inactive)	> 100 µM (inactive)	> 100 µM (inactive)	58.9 µM (inactive)	> 100 µM (inactive)	> 100 µM (inactive)	> 100 µM (inactive)	> 100 µM (inactive)	> 100 µM (inactive)	26.9 µM (inactive)	62.1 µM (inactive)	> 100 µM (inactive)	38.1 µM (inactive)	> 100 µM (inactive)	> 100 µM (inactive)	> 100 µM (inactive)	78.5 µM (inactive)
Sc1cnnc2ccc(Br)cc12	> 100 µM (inactive)	> 100 µM (inactive)	50.7 µM (inactive)	22.5 µM (inactive)	34.6 µM (inactive)	86.1 µM (inactive)	42.7 µM (inactive)	57.3 µM (inactive)	48.1 µM (inactive)	> 100 µM (inactive)	27.4 µM (inactive)	35.6 µM (inactive)	69 µM (inactive)	34 µM (inactive)	26.6 µM (inactive)	32.1 µM (inactive)	> 100 µM (inactive)	> 100 µM (inactive)	38.6 µM (inactive)	38.7 µM (inactive)
COc1ccc(/C=C/c2nccc3ccccc23)cc1OC	> 10 µM (inactive)	> 10 µM (inactive)	> 10 µM (inactive)	> 10 µM (inactive)	> 10 µM (inactive)	5.9 µM (inactive)	6.17 µM (inactive)	> 10 µM (inactive)	> 10 µM (inactive)	2.77 µM (inactive)	6.64 µM (inactive)	> 10 µM (inactive)	5.98 µM (inactive)	> 10 µM (inactive)	> 10 µM (inactive)	6.21 µM (inactive)	> 10 µM (inactive)	> 10 µM (inactive)	> 10 µM (inactive)	> 10 µM (inactive)
COC(=O)NC(Nc1ccc(C)cc1)(C(F)(F)F)C(F)(F)F	> 100 µM (inactive)	> 100 µM (inactive)	> 100 µM (inactive)	> 100 µM (inactive)	> 100 µM (inactive)	> 100 µM (inactive)	> 100 µM (inactive)	> 100 µM (inactive)	> 100 µM (inactive)	> 100 µM (inactive)	> 100 µM (inactive)	> 100 µM (inactive)	> 100 µM (inactive)	> 100 µM (inactive)	> 100 µM (inactive)	> 100 µM (inactive)	> 100 µM (inactive)	> 100 µM (inactive)	> 100 µM (inactive)	> 100 µM (inactive)
CCCCCCCCCCCCCC(=O)OCC(CCS(=O)(=O)O[C@H]1CC[C@@]2(C)C(=CC[C@@H]3C2CC[C@]2(C)C(=O)CCC32)C1)OC(=O)CCCCCCCCCCCCC (stereo partly specified)	> 100 µM (inactive)	> 100 µM (inactive)	> 100 µM (inactive)	> 100 µM (inactive)	> 100 µM (inactive)	> 100 µM (inactive)	> 100 µM (inactive)	> 100 µM (inactive)	> 100 µM (inactive)	> 100 µM (inactive)	> 100 µM (inactive)	> 100 µM (inactive)	> 100 µM (inactive)	> 100 µM (inactive)	> 100 µM (inactive)	> 100 µM (inactive)	> 100 µM (inactive)	> 100 µM (inactive)	> 100 µM (inactive)	> 100 µM (inactive)
C=C(C)CNCC(=C)C.Oc1c(Cl)c(Cl)c(Cl)c(Cl)c1Cl	19.4 µM (inactive)	22.7 µM (inactive)	15.2 µM (inactive)	17.9 µM (inactive)	> 100 µM (inactive)	16.4 µM (inactive)	24.4 µM (inactive)	35.6 µM (inactive)	22.1 µM (inactive)	15.5 µM (inactive)	23.7 µM (inactive)	> 100 µM (inactive)	20.8 µM (inactive)	16.5 µM (inactive)	17.7 µM (inactive)	16.4 µM (inactive)	43.4 µM (inactive)	16.6 µM (inactive)	> 100 µM (inactive)	17.9 µM (inactive)
CC1(C)C/N=C/C(C)(OCc2ccccc2)C(=O)NC(C)(C)C/N=C/C(C)(OCc2ccccc2)C(=O)N1 (stereo unspecified)	> 10 µM (inactive)	–	> 10 µM (inactive)	> 10 µM (inactive)	> 10 µM (inactive)	> 10 µM (inactive)	0.0569 µM (active)	> 10 µM (inactive)	> 10 µM (inactive)	> 10 µM (inactive)	> 10 µM (inactive)	> 10 µM (inactive)	> 10 µM (inactive)	> 10 µM (inactive)	> 10 µM (inactive)	> 10 µM (inactive)	> 10 µM (inactive)	3.82 µM (inactive)	> 10 µM (inactive)	> 10 µM (inactive)
Cc1ccnc2nc3[nH]c4ccccc4c3cc12	24.4 µM (inactive)	> 100 µM (inactive)	> 100 µM (inactive)	> 100 µM (inactive)	> 100 µM (inactive)	> 100 µM (inactive)	> 100 µM (inactive)	> 100 µM (inactive)	> 100 µM (inactive)	> 100 µM (inactive)	> 100 µM (inactive)	> 100 µM (inactive)	> 100 µM (inactive)	> 100 µM (inactive)	> 100 µM (inactive)	> 100 µM (inactive)	–	22 µM (inactive)	> 100 µM (inactive)	39.1 µM (inactive)
CCOC1OC(CO)C(O)CC1n1ccc(=O)[nH]c1=O (stereo unspecified)	> 100 µM (inactive)	> 100 µM (inactive)	> 100 µM (inactive)	> 100 µM (inactive)	> 100 µM (inactive)	> 100 µM (inactive)	> 100 µM (inactive)	> 100 µM (inactive)	> 100 µM (inactive)	> 100 µM (inactive)	> 100 µM (inactive)	> 100 µM (inactive)	> 100 µM (inactive)	> 100 µM (inactive)	> 100 µM (inactive)	> 100 µM (inactive)	–	> 100 µM (inactive)	> 100 µM (inactive)	> 100 µM (inactive)
CSc1nc2c(c(N(C)C)n1)C=Nn1c(nc3ccccc31)S2	65 µM (inactive)	> 100 µM (inactive)	78 µM (inactive)	–	70.5 µM (inactive)	57.7 µM (inactive)	25.7 µM (inactive)	41.4 µM (inactive)	> 100 µM (inactive)	78.2 µM (inactive)	> 100 µM (inactive)	89.1 µM (inactive)	> 100 µM (inactive)	> 100 µM (inactive)	> 100 µM (inactive)	52.1 µM (inactive)	> 100 µM (inactive)	64.1 µM (inactive)	> 100 µM (inactive)	> 100 µM (inactive)
